This data set is described as follows: Severe test against heat (storage at 45° C. for 3 months, residual rate by HPLC). It counts as physicochemical. The method, then:
In preparation of 0.1 mM sodium acetate pH buffer of pH 5.5 in Example 2, four kinds of solutions were prepared so that concentration of sodium chloride was 3 mM, 10 mM, 154 mM and 500 mM. Elcatonin was dissolved therein so that elcatonin concentration was 7 μg/ml. Each of the compositions was filled in an ampule in the same manner as in Example 1 to prepare elcatonin injections having four kinds of ionic strength. The resulting elcatonin injections were stored at 45° C. for 3 months and residual rate was obtained under the same conditions as in Test Example 1.

On to “1-butyric acid-7-(L-2-aminobutyric acid)-26- o L-aspartic acid-27-L-valine-29-L-alanine-calcitonin (salmon) [Elcatonin]”, for which the “Residual rate (%)” value is, setting by setting: (NaCl 3 mM, ionic strength 0.003, 0.1 mM sodium acetate pH 5.5, elcatonin 7 μg/ml) 50%; (NaCl 10 mM, ionic strength 0.010, 0.1 mM sodium acetate pH 5.5, elcatonin 7 μg/ml) 79%; (NaCl 154 mM, ionic strength 0.154, 0.1 mM sodium acetate pH 5.5, elcatonin 7 μg/ml) 98%; (NaCl 500 mM, ionic strength 0.500, 0.1 mM sodium acetate pH 5.5, elcatonin 7 μg/ml) 97%.

For the origin of these results see patent US4977139A, “Aqueous elcatonin solution composition” (Toyo Jozo Company, Ltd., priority 1988, dated 1990).
